According to patent US8207142B2, “Inhibitor of DNA methylation” (priority 2001, dated 2012):
“And” between values parts separate entries of the source, which are not always exact repeats. Equal entries are not always repeated.

How the values were obtained:
[1] = tested on: p16 exon 2; experiment: Ms-SNuPE quantitation of DNA methylation in T24 cells, p16 exon 2; format: cell-based, human; details: for p16 Exon 2 Methylation (%): control 96
Experimental: (§1) The average methylation at defined CpG sites was quantitated using a Ms-SNuPE assay, as described by Gonzalgo and Jones (Nucleic Acids Res. 25:2529-2531, 1997) and U.S. Pat. No. 6,251,594. Briefly, genomic DNA (˜4 μg) was digested overnight with 4 units of EcoRI (Boehringer Mannheim) (p16 promoter/exon 1 and p16 exon 2; FIG. 9A) or with 4 units of RsaI (Boehringer Mannheim) (P3; FIG. 9B) to cut outside the region of interest.
(§2) After standard treatment with sodium bisulfite, a PCR product of the region was generated as template for top-strand methylation analysis. The sequences of the primers used for bisulfite-treated DNA amplification were as follows: […]
p16 exon 2: 94° C. for 3 minutes, 94° C. for 1 minute, 62° C. for 45 seconds, and 72° C. for 45 seconds for 40 cycles, with a final extension step at 72° C. for 10 minutes.
(§3) Duplicates of 4 μl of template were then added to 6 μl of mixture consisting of 1× PCR buffer, 1 μM final concentration primers, 1 μCi of [^32P]dCTP or dTTP, and 1 unit 1:1 Taq/TaqStart antibody (Clontech, Palo Alto, Calif.). Single nucleotide extension involved incubation at 95° C. for 1 minute, then 50° C. for 2 minutes, and finally 72° C. for 1 minute (p16 promoter/exon1 and P16 exon 2) and 95° C. for 1 minute, then 46° C. for 30 seconds, and finally 72° C. for 20 seconds (P3). The sequences for SNuPE primers were as follows: […]
(§4) After briefly spinning down the tubes, 4 μl of stop solution were added to the 10-μl reaction volume, and the samples were boiled for 5 minutes at 95° C. before loading 1.5 μl onto a 15% denaturing polyacrylamide gel (7 M urea). The gel was run at 90 W for 1.5 hours and then dried at 80° C. for 40 minutes. The gel was exposed to a phosphorimaging cassette for quantitation of the ratio of [^32P]dCTP versus [^32P]dTTP incorporation, and the quantitation of the percent methylation was averaged from three separate CpG sites. The gel was then exposed to BioMax MR film (Kodak) to record experimental results.

[2] = tested on: 10T1/2 cells; experiment: Colony-formation assay (plating efficiency) in 10T1/2 cells; format: cell-based, mouse; details: for Ave. Plating Efficiency (%): 250 cells, stained after 14-16 days, control 22; for decrease in plating deficiency (cytotoxicity) / cell death observed: 10T1/2 cells; for cell death observed: 0.3 μM 5-Aza-CdR, 3 μM 5-Aza-CR, 30 μM Zebularine
Experimental: The percentage cell survival was assessed by dividing the mean colony number on the treated plates divided by the mean colony number on the untreated plates ×100.

[3] = tested on: p16 promoter; experiment: Ms-SNuPE quantitation of DNA methylation in T24 cells, p16 promoter; format: cell-based, human; details: control 96
Experimental: as §1, §2
p16 promoter/exon 1: 94° C. for 3 minutes, 94° C. for 45 seconds, 67° C. for 45 seconds, and 72° C. for 45 seconds for 40 cycles, with a final extension step at 72° C. for 10 minutes.
as §3, §4

[4] = tested on: 10T1/2 cells; experiment: Induction of a myogenic phenotype (myotube formation) in 10T1/2 cells; format: cell-based, mouse; set-up: key to Muscle Formation: + representing minimal muscle formation; scored for muscle cells 9-10 days later as + to +++; +++ representing maximal muscle formation; details: for Muscle Formation: 24 hours treatment, scored 9-10 days later; for muscle formation (micrographs, in words): 10T1/2 cells, approximately 9-10 days after drug treatment
Experimental: Cells were plated (3×10^5 cells/100-mm dish) and treated 24 hours later with the indicated concentrations of compounds. The medium was either changed 24 hours or 48 hours after drug treatment. Myotube formation was assayed in 10T1/2 cells as previously described (Constantinides et al., Nature 267:364-366, 1977). […] The ability of Zebularine to cause 10T1/2 cells to undergo the myogenic switch was therefore tested (FIG. 7).

## O=c1ncccn1[C@@H]1O[C@H](CO)[C@@H](O)[C@H]1O [Zebularine, 1-β-ribofuranosyl-1,2-dihydropyrimidin-2-one]
[1]; 300 μM, 24 hrs
  Relative p16 Exon 2 De-methylation (%): 7 +/− 1%
  p16 Exon 2 Methylation (%): 89 +/− 1%
[1]; 300 μM, 48 hrs
  Relative p16 Exon 2 De-methylation (%): 16 +/− 2%
  p16 Exon 2 Methylation (%): 81 +/− 2%
[1]; 500 μM, 24 hrs
  Relative p16 Exon 2 De-methylation (%): 9 +/− 1%
  p16 Exon 2 Methylation (%): 87 +/− 1%
[1]; 500 μM, 48 hrs
  Relative p16 Exon 2 De-methylation (%): 18 +/− 2%
  p16 Exon 2 Methylation (%): 79 +/− 2%
[1]; 1000 μM, 24 hrs
  Relative p16 Exon 2 De-methylation (%): 20 +/− 2%
  p16 Exon 2 Methylation (%): 77 +/− 2%
[1]; 1000 μM, 48 hrs
  Relative p16 Exon 2 De-methylation (%): 24 +/− 1%
  p16 Exon 2 Methylation (%): 73 +/− 1%
[2]; 10 μM
  Ave. Plating Efficiency (%): 20%
[2]; 30 μM
  Ave. Plating Efficiency (%): 18%
[2]
  decrease in plating deficiency (cytotoxicity): 17%
  cell death observed: only very little cell death
[3]; 300 μM, 24 hrs
  p16 Promoter Methylation (%): 91% and 91 +/− 1%
[3]; 300 μM, 48 hrs
  p16 Promoter Methylation (%): 80% and 80 +/− 1%
[3]; 500 μM, 24 hrs
  p16 Promoter Methylation (%): 85% and 85 +/− 1%
[3]; 500 μM, 48 hrs
  p16 Promoter Methylation (%): 77% and 77 +/− 2%
[3]; 1000 μM, 24 hrs
  p16 Promoter Methylation (%): 72% and 72 +/− 2%
[3]; 1000 μM, 48 hrs
  p16 Promoter Methylation (%): 68% and 68 +/− 2%
[4]; 10 μM
  Muscle Formation: +
[4]; 30 μM
  Muscle Formation: ++
[4]
  muscle formation (micrographs, in words): induced muscle formation in 10T1/2 cells

## Nc1ncn([C@@H]2O[C@H](CO)[C@@H](O)[C@H]2O)c(=O)n1 [5-Aza-CR, 5-azacytidine, reference compound]
[1]; 3 μM, 24 hrs
  Relative p16 Exon 2 De-methylation (%): 8 +/− 2%
  p16 Exon 2 Methylation (%): 88 +/− 2%
[1]; 10 μM, 24 hrs
  Relative p16 Exon 2 De-methylation (%): 15 +/− 1%
  p16 Exon 2 Methylation (%): 82 +/− 1%
[1]; 30 μM, 24 hrs
  Relative p16 Exon 2 De-methylation (%): 25%
  p16 Exon 2 Methylation (%): 72 +/− 2%
[1]; 100 μM, 24 hrs
  Relative p16 Exon 2 De-methylation (%): 29%
  p16 Exon 2 Methylation (%): 68 +/− 3%
[2]; 1 μM
  Ave. Plating Efficiency (%): 21%
[2]; 3 μM
  decrease in plating deficiency (cytotoxicity): 24%
  Ave. Plating Efficiency (%): 16%
[2]
  cell death observed: appreciable cell death
[3]; 3 μM, 24 hrs
  p16 Promoter Methylation (%): 91% and 91 +/− 1%
[3]; 10 μM, 24 hrs
  p16 Promoter Methylation (%): 83 +/− 2%
[3]; 30 μM, 24 hrs
  p16 Promoter Methylation (%): 73 +/− 2%
[3]; 100 μM, 24 hrs
  p16 Promoter Methylation (%): 68% and 68 +/− 2%
[4]; 1 μM
  Muscle Formation: ++
[4]; 3 μM
  Muscle Formation: +++
[4]
  muscle formation (micrographs, in words): formed multinucleated myotubes
